Here are results for one compound from patent US10386375B2, “Methods and systems for the diagnosis and treatment of androgen disorders” (Function Promoting Therapies LLC, priority 2013, dated 2019).

A short description of data set [1]: Percent free testosterone calculated in serum samples from the TED trial. It counts as in vitro ADME, men. On the procedure:
Assessment of FT Concentrations in Clinical Trials. FT determined using the dynamic model developed in this study (cFTZBJ) and Vermeulen's equation (cFTV) (as implemented by Mazer, (Mazer 2009)) were compared with those measured using equilibrium dialysis in samples derived from randomized testosterone trials in men (Spitzer et al 2012) and women (Huang et al 2012). These samples had been collected in fasting state in the morning, stored at −80° C., and never thawed.
At baseline and after 12-weeks of testosterone or placebo administration, total testosterone concentrations were measured using LC-MS/MS and SHBG concentrations using a two-site immunofluorometric assay (DELFIA®, Perkin-Elmer, Waltham, Mass.) (21). FT was measured in the same samples by equilibrium dialysis(Bhasin et al 2012).
Application of new Multi-step Dynamic Binding Model with Complex Allostery to Clinical Trials Data. SHBG and albumin are predominantly the two proteins that bind testosterone with significant affinity; the binding affinities of transcortin and orosomucoid for testosterone are extremely low. […]

The next data set has as its target T1, SHBG (Homo sapiens, UniProt P04278).
T1 sequence (P04278 30-402): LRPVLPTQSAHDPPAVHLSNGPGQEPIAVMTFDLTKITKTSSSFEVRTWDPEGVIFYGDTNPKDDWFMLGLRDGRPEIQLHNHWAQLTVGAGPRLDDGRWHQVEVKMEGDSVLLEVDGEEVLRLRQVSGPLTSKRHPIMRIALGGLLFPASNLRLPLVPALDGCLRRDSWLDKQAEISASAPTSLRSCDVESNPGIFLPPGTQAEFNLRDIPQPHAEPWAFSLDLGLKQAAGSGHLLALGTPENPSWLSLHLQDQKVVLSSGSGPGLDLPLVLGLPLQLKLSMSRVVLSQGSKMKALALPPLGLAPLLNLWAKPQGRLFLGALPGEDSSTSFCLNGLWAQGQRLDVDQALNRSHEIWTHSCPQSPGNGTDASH
As to conditions: Model A, Vermeulen's model: equal affinity for each monomer in SHBG dimer; fixed model value; cited from earlier work.

By Kd is commonly meant a measure of binding affinity in units of concentration. Turning to `C[C@]12CC[C@H]3[C@@H](CCC4=CC(=O)CC[C@@]43C)[C@@H]1CC[C@@H]2O` [testosterone, 17-β-hydroxyandrost-4-en-3-one], in data set [1] (calculated with the new dynamic model (cFTZBJ), clinical trial samples), the “fraction of circulating testosterone which is free” value was 2.9±0.4%. In data set [1] (percent free testosterone calculated with Vermeulen's equation, as generally assumed), the “% cFTV” value is given as 1.5±0.4%. Also, the dissociation constant Kd at SHBG was 1 nM.
